Legend:
Assay in all cases: cell-free ADP-Glo Kinase Assay
Format in all cases: biochemical
Conditions in all cases: read-out: Experimental validation pIC50 (converted)
[1] = molecular target: SRC (Homo sapiens, UniProt P12931)
[2] = molecular target: T1, AXL (Homo sapiens, UniProt P30530)
T1 sequence (P30530 26-894): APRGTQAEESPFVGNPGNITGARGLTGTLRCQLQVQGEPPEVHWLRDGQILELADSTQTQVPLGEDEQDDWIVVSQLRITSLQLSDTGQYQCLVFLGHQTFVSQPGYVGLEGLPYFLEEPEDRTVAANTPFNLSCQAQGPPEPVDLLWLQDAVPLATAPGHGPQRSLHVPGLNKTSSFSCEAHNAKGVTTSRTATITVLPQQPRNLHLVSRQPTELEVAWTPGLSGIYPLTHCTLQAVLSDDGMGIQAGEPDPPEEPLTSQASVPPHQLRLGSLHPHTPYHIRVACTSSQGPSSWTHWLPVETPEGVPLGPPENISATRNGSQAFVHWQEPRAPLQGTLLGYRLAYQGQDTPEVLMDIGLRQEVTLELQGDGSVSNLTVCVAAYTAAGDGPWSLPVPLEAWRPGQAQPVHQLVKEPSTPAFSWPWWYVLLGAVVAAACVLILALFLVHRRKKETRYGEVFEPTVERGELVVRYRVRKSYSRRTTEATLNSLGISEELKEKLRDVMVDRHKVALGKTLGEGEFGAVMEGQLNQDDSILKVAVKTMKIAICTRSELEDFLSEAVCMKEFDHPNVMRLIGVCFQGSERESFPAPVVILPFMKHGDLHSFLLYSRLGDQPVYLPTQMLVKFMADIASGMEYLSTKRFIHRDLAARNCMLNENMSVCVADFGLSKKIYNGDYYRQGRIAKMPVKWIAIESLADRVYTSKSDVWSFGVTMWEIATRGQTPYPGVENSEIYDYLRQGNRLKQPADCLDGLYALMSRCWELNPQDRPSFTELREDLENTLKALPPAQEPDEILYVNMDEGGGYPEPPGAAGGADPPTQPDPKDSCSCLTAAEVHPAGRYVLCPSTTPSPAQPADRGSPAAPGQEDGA
Description: (§1) The kinase inhibitors were dissolved to 1X Kinase Buffer with 5% DMSO by transferring 200nL of the buffer using ECHO525 Liquid handler (Labcyte). […] The dissolved kinases and 2.5X kinase buffer controls were transferred at 400nL using ECHO525. […] The 2.5X ATP/substrate working stocks were transferred at 400nL using ECHO525.
(§2) For the ADP detection, 1 μl ADP-Glo reagent was dispensed (Thermo Scientific Multidrop Combi nL). […] Next, 2 μl kinase detection reagent was dispensed with Thermo Scientific Multidrop Combi nL.
(§3) The Kinase Selectivity Profiling System kit assays were performed at least in two individual experiments, each having two replicates.
(§4) IC50 values from all the experiments were obtained with GraphPad Prism 7 (GraphPad Software, Inc. California, USA) using inhibitor vs. response—variable slope (four parameters) analysis. […] X-axis scale was set to log10.

[3] = molecular target: BRK (Homo sapiens, UniProt Q13882)
Description: as §1, §2, §3, §4

[4] = molecular target: FYN A (Homo sapiens, UniProt P06241)
Sequence of FYN A (P06241 whole entry): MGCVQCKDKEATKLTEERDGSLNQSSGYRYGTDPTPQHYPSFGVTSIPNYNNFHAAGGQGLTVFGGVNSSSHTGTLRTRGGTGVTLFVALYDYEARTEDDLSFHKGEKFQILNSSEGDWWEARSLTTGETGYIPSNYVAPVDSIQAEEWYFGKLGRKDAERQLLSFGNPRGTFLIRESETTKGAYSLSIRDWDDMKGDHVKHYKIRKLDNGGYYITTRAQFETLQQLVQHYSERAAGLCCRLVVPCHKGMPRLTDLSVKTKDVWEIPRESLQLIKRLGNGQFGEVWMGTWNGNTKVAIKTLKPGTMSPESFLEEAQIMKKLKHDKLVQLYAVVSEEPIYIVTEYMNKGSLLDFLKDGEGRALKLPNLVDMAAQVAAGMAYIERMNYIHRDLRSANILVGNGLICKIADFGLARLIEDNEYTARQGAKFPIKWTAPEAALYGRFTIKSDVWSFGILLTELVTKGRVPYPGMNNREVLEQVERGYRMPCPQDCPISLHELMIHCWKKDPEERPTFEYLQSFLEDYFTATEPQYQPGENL
Description: as §1, §2, §3, §4

Sequence of SRC (P12931 whole entry): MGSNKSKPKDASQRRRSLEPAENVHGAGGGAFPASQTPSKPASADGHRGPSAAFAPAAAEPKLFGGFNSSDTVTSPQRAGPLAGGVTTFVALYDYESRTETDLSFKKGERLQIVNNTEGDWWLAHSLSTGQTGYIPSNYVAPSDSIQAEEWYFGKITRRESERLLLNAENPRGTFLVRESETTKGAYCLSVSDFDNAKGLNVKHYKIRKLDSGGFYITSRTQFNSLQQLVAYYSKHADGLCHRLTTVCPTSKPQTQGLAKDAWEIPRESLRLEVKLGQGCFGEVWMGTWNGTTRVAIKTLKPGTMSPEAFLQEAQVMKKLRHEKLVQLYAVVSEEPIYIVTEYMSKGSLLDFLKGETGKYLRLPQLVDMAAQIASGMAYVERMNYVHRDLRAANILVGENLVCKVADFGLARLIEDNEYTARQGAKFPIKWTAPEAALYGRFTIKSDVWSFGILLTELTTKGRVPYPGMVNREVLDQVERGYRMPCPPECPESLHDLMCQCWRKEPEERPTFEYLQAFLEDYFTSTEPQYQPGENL
Sequence of BRK (Q13882 whole entry): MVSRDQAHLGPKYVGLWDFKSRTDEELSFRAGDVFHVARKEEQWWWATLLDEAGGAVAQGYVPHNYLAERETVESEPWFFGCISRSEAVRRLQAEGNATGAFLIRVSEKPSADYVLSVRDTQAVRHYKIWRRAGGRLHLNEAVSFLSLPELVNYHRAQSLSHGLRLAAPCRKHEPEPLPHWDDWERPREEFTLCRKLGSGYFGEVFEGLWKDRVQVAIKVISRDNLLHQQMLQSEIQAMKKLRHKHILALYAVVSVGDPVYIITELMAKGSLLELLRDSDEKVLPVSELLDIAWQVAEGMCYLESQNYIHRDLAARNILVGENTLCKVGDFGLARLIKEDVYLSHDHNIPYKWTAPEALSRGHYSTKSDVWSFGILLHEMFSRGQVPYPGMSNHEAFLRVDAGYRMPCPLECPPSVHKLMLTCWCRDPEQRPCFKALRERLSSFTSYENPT

## COc1cc2c(Oc3ccc4[nH]c(C)cc4c3F)ncnc2cc1OCCCN1CCCC1 [Cediranib]
[1]
  IC50: 724 nM
[2]
  IC50: 3090 nM
[3]
  IC50: 166 nM
[4]
  IC50: 135 nM

From PMC5560747, “Computational-experimental approach to drug-target interaction mapping: A case study on kinase inhibitors” (PLoS Computational Biology, 2017)
